US10494384B2, “Urea peptoid boric acid compound, pharmaceutical composition thereof, preparation method therefor, and uses thereof” (Peking University, priority 2015, dated 2019)
Where two headings read alike, the source gives them in different places.

What was measured:
[1] = target: T1, 20S proteasome extracted from rat liver (T-L) (Rattus norvegicus, UniProt P40112+Q9JHW0); assay: inhibition of 20S proteasome, T-L activity (fluorescent peptide); type: biochemical
T1 construct: 20S proteasome extracted from rat liver; from tissue; host or cells: rat liver
Description: (§1) 1 μg of 20S proteasome extracted from rat liver was incubated with a 100 μL solution containing various concentrations of the present compounds, 50 μM fluorescent peptides and 20 mM Tris-HCl at 37° C. for 1 h, respectively. […] 0.1% DMSO was used as a solvent control. Compared with the fluorescence of solvent control, an inhibition rate or IC50 value was calculated.

[2] = target: T2, 20S proteasome extracted from rat liver (CT-L) (Rattus norvegicus, UniProt P18421+P28075); assay: inhibition of 20S proteasome, CT-L activity (fluorescent peptide); type: biochemical
T2 construct: 20S proteasome extracted from rat liver; from tissue; host or cells: rat liver
Description: as §1

[3] = target: T3, 20S proteasome extracted from rat liver (PGPH) (Rattus norvegicus, UniProt P28073+Q9JHW0); assay: inhibition of 20S proteasome, PGPH activity (fluorescent peptide); type: biochemical
T3 construct: 20S proteasome extracted from rat liver; from tissue; host or cells: rat liver
Description: as §1

HepG2 liver cancer cells = assay: anti-tumor activity in vitro (IC50), MTT; type: cell-based; conditions: Homo sapiens, 72 h
Description: (§2) Cancer cells were cultured in vitro. When cell growth reached logarithmic phase, the cells were collected and centrifuged at 1000 rpm for 5 min, before the supernate was removed and the cells were suspended in a moderate amount of medium, and then the concentration of cell was adjusted to 3.5×10^4/mL. The cell suspension was added into a 96-well plate with 100 μL per well and cultured in a cell incubator (37° C., 5% CO2) for 24 h. Then test drugs of different end concentrations were added, and the negative control group was added DMSO (end concentration was 0.5%), while each group afforded three repetitive holes. After cultivation for another 72 h in the cell incubator, a solution containing 5 mg/ml MTT (20 μL) was added into each well and the 96-well plate was placed at 37° C. for 3 h. To each well was added 150 μL DMSO, after oscillation in a shaking table for 5 min, the optical density (OD) values at 492 nm/620 nm were measured. IC50 values were calculated by Prism Graphpad statistical software.

[4] = system: MGC803 stomach cancer cells; assay: anti-tumor activity in vitro (IC50), MTT; type: cell-based; conditions: Homo sapiens, MGC-803, 72 h
Description: as §2

Hela = assay: anti-tumor activity in vitro (IC50), MTT; type: cell-based; conditions: Homo sapiens, 72 h
Description: as §2

[5] = system: Hela, human cervical carcinoma; assay: preliminary anti-tumor screening in vitro, MTT method; type: cell-based; conditions: read-out: inhibition rates (%) Hela
Method in brief: (§3)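 Inhibition rates measured at 0.1, 1 or 10 μM compound; cell growth read by MTT for Hela, SRB for BGC-823, MCF-7 and A549.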

HL-60 = assay: anti-tumor activity in vitro (IC50), MTT; type: cell-based; conditions: Homo sapiens, 72 h
Description: as §2

BEL7404 = assay: anti-tumor activity in vitro (IC50), MTT; type: cell-based; conditions: Homo sapiens, BEL-7404, 72 h
Description: as §2

MKN45 = assay: anti-tumor activity in vitro (IC50), MTT; type: cell-based; conditions: Homo sapiens, MKN-45, 72 h
Description: as §2

A549 = assay: anti-tumor activity in vitro (IC50), MTT; type: cell-based; conditions: Homo sapiens, 72 h
Description: as §2

SKOV3 = assay: anti-tumor activity in vitro (IC50), MTT; type: cell-based; conditions: Homo sapiens, SK-OV-3, 72 h
Description: as §2

HCT116 = assay: anti-tumor activity in vitro (IC50), MTT; type: cell-based; conditions: Homo sapiens, HCT-116, 72 h
Description: as §2

SW1990 = assay: anti-tumor activity in vitro (IC50), MTT; type: cell-based; conditions: Homo sapiens, 72 h
Description: as §2

MDA-MB-231 = assay: anti-tumor activity in vitro (IC50), MTT; type: cell-based; conditions: Homo sapiens, 72 h
Description: as §2

95D = assay: anti-tumor activity in vitro (IC50), MTT; type: cell-based; conditions: Homo sapiens, 72 h
Description: as §2

A549, human lung cancer = assay: preliminary anti-tumor screening in vitro, SRB method; type: cell-based; conditions: read-out: inhibition rates (%) A549
Method in brief: as §3

MCF-7, breast cancer = assay: as above; type: cell-based; conditions: Homo sapiens, read-out: inhibition rates (%) MCF-7; for inhibition at 0.1 µM: MCF7, 0.1 μM; for inhibition at 1 µM: MCF7, 1 μM; for inhibition at 10 µM: MCF7, 10 μM
Method in brief: as §3

BGC-823, liver cancer = assay: as above; type: cell-based; conditions: Homo sapiens, read-out: inhibition rates (%) BGC-823
Method in brief: as §3

[6] = liver cancer cells, read-out: IC50 (μM) HepG2
[7] = stomach cancer cells, MTT, read-out: IC50 (μM) MGC803

Structure (SMILES)	IC50 (HepG2 liver cancer cells; read-out: IC50 HepG2) [µM]	IC50 (HepG2 liver cancer cells; [6]) [µM]	IC50 ([4]; MTT, read-out: IC50 MGC803) [µM]	IC50 [4, 7] [µM]	IC50 (Hela) [nM]	inhibition at 0.1 µM [5] [%]	inhibition at 1 µM [5] [%]	inhibition at 10 µM [5] [%]	IC50 (HL-60) [nM]	inhibition at 0.1 µM (A549, human lung cancer) [%]	inhibition at 1 µM (A549, human lung cancer) [%]	inhibition at 10 µM (A549, human lung cancer) [%]	inhibition at 0.1 µM (MCF-7, breast cancer) [%]	inhibition at 1 µM (MCF-7, breast cancer) [%]	inhibition at 10 µM (MCF-7, breast cancer) [%]	inhibition at 0.1 µM (BGC-823, liver cancer) [%]	inhibition at 1 µM (BGC-823, liver cancer) [%]	inhibition at 10 µM (BGC-823, liver cancer) [%]	other results
CC(C)C[C@H](NC(=O)[C@H](Cc1ccccc1)NC(=O)NCc1ccc(F)c(F)c1)B(O)O [Example 35, N-L-phenylalanyl-L-leucine borate-N′-3,4-difluoro-benzylamine-urea]	0.019	0.0388	0.0167	0.0067	255														IC50 [1]: 340 nM; IC50 [2]: 2 nM; IC50 [3]: 110 nM
CC(C)C[C@H](NC(=O)[C@H](Cc1ccccc1)NC(=O)NCc1cccc(Cl)c1Cl)B(O)O [Example 20, N-L-phenylalanyl-L-leucine borate-N′-(2,3-dichloro-benzylamine)-urea]	0.026	0.0378	0.0175	0.00733	117	17.4	42.5	75.7	27	65	68.2	69.3	32.2	42.2	45.5	50	47.1	50.2	inhibition at 0.2 µM ([1]; 0.2 μM, rat liver 20S proteasome, 37° C., 1 h, read-out: inhibition rates (%) T-L): 35.6%; inhibition at 2 µM ([1]; 2 μM, rat liver 20S proteasome, 37° C., 1 h, read-out: inhibition rates (%) T-L): 83.7%; inhibition at 20 µM ([1]; 20 μM, rat liver 20S proteasome, 37° C., 1 h, read-out: inhibition rates (%) T-L): 92.6%; inhibition at 0.2 µM ([2]; 0.2 μM, rat liver 20S proteasome, 37° C., 1 h, read-out: inhibition rates (%) CT-L): 91.9%; inhibition at 2 µM ([2]; 2 μM, rat liver 20S proteasome, 37° C., 1 h, read-out: inhibition rates (%) CT-L): 96.5%; inhibition at 20 µM ([2]; 20 μM, rat liver 20S proteasome, 37° C., 1 h, read-out: inhibition rates (%) CT-L): 97%; inhibition at 0.2 µM ([3]; 0.2 μM, rat liver 20S proteasome, 37° C., 1 h, read-out: inhibition rates (%) PGPH): -23%; inhibition at 2 µM ([3]; 2 μM, rat liver 20S proteasome, 37° C., 1 h, read-out: inhibition rates (%) PGPH): -26.6%; inhibition at 20 µM ([3]; 20 μM, rat liver 20S proteasome, 37° C., 1 h, read-out: inhibition rates (%) PGPH): -28.9%; IC50 (BEL7404): 42.2 nM; IC50 (MKN45): 20.1 nM; IC50 (A549): 1020 nM; IC50 (SKOV3): 46.3 nM; IC50 (HCT116): 23 nM; IC50 (SW1990): 80.3 nM; IC50 (MDA-MB-231): 25.1 nM; IC50 (95D): 41 nM; melting point: 119 to 122 °C
CC(C)C[C@H](NC(=O)[C@H](Cc1ccccc1)NC(=O)c1cnccn1)B(O)O [positive control, bortezomib, reference compound]	0.00161	0.0366	0.00654	0.00578	224	41.6	43.2	47.3	7.6	59.9	63.8	66.1	27.6	32.8	40.7	41	43.6	46.8	IC50 ([4]; MGC80-3, MTT, value ± spread, read-out: IC50 (μM), growth of stomach cancer cells (MGC80-3)): 0.0057 ± 0.001 µM
